In data set [1] the test system is Liver. The experiment in a line: Stability of the compound in mouse liver microsomes assessed as compound remaining. In kind it is ADME, microsome.
The subject of data set [2] is Liver. Description: Stability of the compound in human liver microsomes assessed as compound remaining. The data set is classed as ADME, microsome. (In general: Liver microsomes are a subcellular fraction often used to study metabolism.)
The test system of data set [3] is Liver. Description: Stability of the compound in rat liver microsomes assessed as compound remaining. The data set is classed as ADME, microsome.
Data set [4] in a line: Permeability of the compound by PAMPA. In kind it is physicochemical. The conditions noted are these: read-out: permeability.

With `CC[C@H]1COC(C)(C)C(=O)N1c1cc(-c2cc(Cl)c3c(N)ncnn23)ccc1C#N`, the Stability in data set [1] worked out at 1%; in data set [2], 53%; in data set [3], 4%.

`[2H]C([2H])([2H])C1([2H])N(c2cc(-c3cc(Cl)c4c(N)ncnn34)ccc2C#N)C(=O)C(C)(C)OC1([2H])[2H]` (centres undefined): the Stability was 0 to 28% in data set [1], 83 to 87% in data set [2] and 34 to 37% in data set [3].

Turning to `C[C@@H]1COC(C)(C)C(=O)N1c1cc(-c2cc(Cl)c3c(N)ncnn23)ccc1C#N`, the Stability is reported as 28% in data set [1], 92% in data set [2] and 25% in data set [3].

As to `[2H]C1([2H])OC(C)(C)C(=O)N(c2cc(-c3cc(C(F)(F)F)c4c(N)ncnn34)ccc2C#N)C1([2H])[2H]`, the Stability came out at 74% in data set [1], 91% in data set [2] and 75% in data set [3].

For `C[C@H]1CN(c2cc(-c3cc(C(F)(F)F)c4c(N)ncnn34)ccc2C#N)C(=O)C(C)(C)O1`, the values for the Stability in data set [1], in data set [2] and in data set [3] were 24%, 85% and 29%, respectively.

In the case of `C[C@H]1COC(C)(C)C(=O)N1c1cc(-c2cc(C(F)(F)F)c3c(N)ncnn23)ccc1C#N`, the Stability worked out at 1% in data set [1], 23% in data set [2] and 1% in data set [3].

On to `[2H]C([2H])([2H])C1([2H])N(c2cc(-c3cc(C(F)(F)F)c4c(N)ncnn34)ccc2C#N)C(=O)C(C)(C)OC1([2H])[2H]` (centres undefined), for which the values for the Stability in data set [1], in data set [2] and in data set [3] were 0 to 18%, 77 to 91% and 32 to 44%, respectively.

`C[C@H]1OC(C)(C)C(=O)N(c2cc(-c3cc(C(F)(F)F)c4c(N)ncnn34)ccc2C#N)[C@H]1C`: the Stability was 4% in data set [1], 50% in data set [2] and 2% in data set [3]. In addition, in data set [4], the Papp was 65.9 ×10⁻⁶ cm/s.

On to `[2H]C1([2H])OC(C)(C)C(=O)N(c2cc(-c3cc(Cl)c4c(N)ncnn34)ccc2C#N)C1([2H])[2H]`, for which the Stability is reported as 58% in data set [1], 94% in data set [2] and 76% in data set [3].

Regarding `C[C@@H]1CN(c2cc(-c3cc(Cl)c4c(N)ncnn34)ccc2C#N)C(=O)C(C)(C)O1`, the values for the Stability in data set [1], in data set [2] and in data set [3] were 43%, 61% and 5%, respectively.

For the compound `C[C@H]1CN(c2cc(-c3cc(Cl)c4c(N)ncnn34)ccc2C#N)C(=O)C(C)(C)O1`, the Stability in data set [1] is on record as 0%; in data set [2], 18%; in data set [3] it was 0%.

For the origin of these results see ChEMBL document CHEMBL4024705 (Bioorg Med Chem Lett, 2017).
